Measured values: BindingDB's records for doi:10.7270/Q2N014XN (Srmlsc, 2007)

Target: T1, Diphosphomevalonate decarboxylase (Streptococcus pneumoniae serotype 2 (strain D39 / NCTC 7466), UniProt A0A0H2ZN59)
T1 sequence (A0A0H2ZN59 whole entry): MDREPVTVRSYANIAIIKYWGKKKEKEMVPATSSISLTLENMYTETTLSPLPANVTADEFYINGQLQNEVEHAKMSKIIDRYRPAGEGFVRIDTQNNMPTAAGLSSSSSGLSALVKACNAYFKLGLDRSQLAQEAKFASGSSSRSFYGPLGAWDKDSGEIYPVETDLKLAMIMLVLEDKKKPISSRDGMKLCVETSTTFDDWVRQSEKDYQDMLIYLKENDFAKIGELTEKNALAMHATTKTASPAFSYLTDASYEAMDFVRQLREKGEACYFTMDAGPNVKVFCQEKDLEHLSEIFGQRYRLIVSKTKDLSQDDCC
Experiment: S. pneumoniae DPM-DC inhibitor potency, dose response, biochemical, PK/LDH-coupled NADH fluorescence, hexokinase coupling counter-screen (AID 550)

[1] = inactive by the depositor's call

## CCOc1cc(NC(=O)c2ccco2)c(OCC)cc1NC(=O)CCc1ccc(OC)cc1 [Furan-2-carboxylic acid {2,5-diethoxy-4-[3-(4-methoxy-phenyl)-propionylamino]-phenyl}-amide]
  IC50: > 10000 µM

## CCCOC(=O)Cc1n[nH]c(=O)[nH]c1=O [2-(3,5-dioxo-2H-1,2,4-triazin-6-yl)acetic acid propyl ester]
  IC50: > 10000 µM

## CCc1cc2c(=O)c(-c3nc4ccccc4n3C)c(C)oc2c(CN2CCN(C)CC2)c1O
  IC50: 49.5 µM

## COc1cc(NC(=O)c2cccs2)c(C(=O)OCC(=O)NCc2ccco2)cc1OC [4,5-dimethoxy-2-(2-thenoylamino)benzoic acid [2-(2-furfurylamino)-2-keto-ethyl] ester]
  IC50: > 10000 µM

## COc1ccc(-c2nnc(Nc3nc4c(OC)cccc4s3)o2)c(OC)c1 [5-(2,4-dimethoxyphenyl)-N-(4-methoxy-1,3-benzothiazol-2-yl)-1,3,4-oxadiazol-2-amine]
  IC50: 6.62 µM

## Cc1ccc2oc(=O)c3cnn(CC(=O)NC4CCN(Cc5ccccc5)CC4)c3c2c1 [2-(8-methyl-4-oxidanylidene-chromeno[4,3-c]pyrazol-1-yl)-N-[1-(phenylmethyl)piperidin-4-yl]ethanamide]
  IC50: > 10000 µM

## Cc1cc(C)c2c(=O)n(CC(=O)N3CCC(Cc4ccccc4)CC3)sc2n1 [2-[2-(4-benzylpiperidin-1-yl)-2-oxoethyl]-4,6-dimethyl-[1,2]thiazolo[5,4-b]pyridin-3-one]
  IC50: 221 µM

## Cc1cc(O)c(C=Nc2cccc(Cl)c2)c(=O)o1 [(3Z)-3-[(3-chloroanilino)methylene]-6-methyl-pyran-2,4-quinone]
  IC50: > 10000 µM

## N#Cc1c(NCCO)nc(NCc2ccccc2)c2c1CCN(Cc1ccccc1)C2 [3-(2-hydroxyethylamino)-7-(phenylmethyl)-1-[(phenylmethyl)amino]-6,8-dihydro-5H-2,7-naphthyridine-4-carbonitrile]
  IC50: 38.6 µM

## CCCN1C(=O)C(NC(C)=O)c2cc(OC)ccc21 (configuration not stated) [MLS000080624]
  IC50: > 10000 µM

## CN(C)CCSc1nnc(-c2ccccc2)o1
  IC50: > 10000 µM

## CC(=O)c1cccc(NC(=O)Nc2cccnc2)c1 [1-(3-acetylphenyl)-3-(3-pyridinyl)urea]
  IC50: > 10000 µM

## Cc1cccc(Nc2nnc(S)s2)c1C [5-(2,3-dimethylanilino)-3H-1,3,4-thiadiazole-2-thione]
  IC50: 188 µM

## Cc1cc(C(=O)CSc2nnnn2-c2ccc(Cl)cc2)c(C)n1CC1CCCO1 (configuration not stated) [2-[1-(4-chlorophenyl)tetrazol-5-yl]sulfanyl-1-[2,5-dimethyl-1-(oxolan-2-ylmethyl)pyrrol-3-yl]ethanone]
  IC50: > 10000 µM

## COc1cc(C2C3=C(CC(C)(C)CC3=O)N=C(C)C2C#N)cc(OC)c1O (configuration not stated)
  IC50: > 10000 µM

## Nc1c(C(=O)NC2CCCC2)c2nc3ccccc3nc2n1N=Cc1cccnc1 [2-amino-N-cyclopentyl-1-(3-pyridinylmethylideneamino)-3-pyrrolo[3,2-b]quinoxalinecarboxamide]
  IC50: 17.1 µM

## COC(=O)c1c(NC(=O)c2ccoc2C)sc2c1CCC2 [2-[(2-methyl-3-furoyl)amino]-5,6-dihydro-4H-cyclopenta[b]thiophene-3-carboxylic acid methyl ester]
  IC50: 98.9 µM

## Cc1nc2oc3c(NCC4CCCO4)ncnc3c2c2c1COC(C)(C)C2 (configuration not stated) [MLS000084527]
  IC50: 22.3 µM

## CCOc1ccc(N2CC(C(=O)OC)CC2=O)cc1 (configuration not stated) [1-(4-ethoxyphenyl)-5-oxo-3-pyrrolidinecarboxylic acid methyl ester]
  IC50: > 10000 µM

## O=C(CN1c2cccc3cccc(c23)S1(=O)=O)N1CCOCC1 [2-[2-(4-morpholinyl)-2-oxoethyl]-2H-naphtho[1,8-cd]isothiazole 1,1-dioxide]
  IC50: 21.9 µM

## COC(=O)c1sc2nc(-c3ccco3)ccc2c1N [3-amino-6-(2-furanyl)-2-thieno[2,3-b]pyridinecarboxylic acid methyl ester]
  IC50: 28.7 µM

## COC(=O)Sc1nnc(-c2ccc(Br)cc2)o1 [MLS000084961]
[1]
  IC50: 16.4 µM

## O=c1c2cc(N3CCOCC3)ccc2[nH]c(=S)n1Cc1ccccn1 [MLS000095415]
  IC50: 36.1 µM

## COCCn1cc(C(=O)NCCCN2CCC(C)CC2)c2c3ccccc3n(C)c2c1=O [1-keto-2-(2-methoxyethyl)-9-methyl-N-[3-(4-methylpiperidino)propyl]-beta-carboline-4-carboxamide]
  IC50: 27.2 µM

## CCOC(=O)c1cc2nc(Nc3ccc(OC)cc3)sc2s1 [2-(4-methoxyanilino)-5-thieno[3,2-d]thiazolecarboxylic acid ethyl ester]
  IC50: 44.6 µM

## CCn1nc(-c2cccs2)nc2c(=O)n(C)c(=O)nc1-2 [1-ethyl-6-methyl-3-thiophen-2-yl-pyrimido[5,4-e][1,2,4]triazine-5,7-dione]
[1]
  IC50: 4.73 µM

## CCn1nc(-c2ccccc2)nc2c(=O)n(C)c(=O)nc1-2 [1-Ethyl-6-methyl-3-phenyl-1H-pyrimido[5,4-e][1,2,4]triazine-5,7-dione]
[1]
  IC50: 20 µM

## CC(C)CNC(=O)COc1ccc2c3c(c(=O)oc2c1)CCC3 [MLS000054673]
  IC50: 65.4 µM

## COc1ccc(NC(=O)c2nnn(Cc3ccc(SC)cc3)c2N)c(OC)c1 [5-amino-N-(2,4-dimethoxyphenyl)-1-[(4-methylsulfanylphenyl)methyl]triazole-4-carboxamide]
  IC50: 28.5 µM

## CC1Cc2nc(SCC(=O)Nc3ccc4c(c3)OCO4)n(CCc3ccccc3)c(=O)c2S1 (configuration not stated) [MLS000101671]
  IC50: > 10000 µM

## O=C(Nc1ccc(F)cc1)N(CCCN1CCOCC1)Cc1cc2cc3c(cc2[nH]c1=O)OCO3 [3-(4-fluorophenyl)-1-[3-(4-morpholinyl)propyl]-1-[(6-oxo-5H-[1,3]dioxolo[4,5-g]quinolin-7-yl)methyl]urea]
  IC50: 17.6 µM

## Nc1c(S(=O)(=O)c2cccs2)c2nc3ccccc3nc2n1Cc1ccc2c(c1)OCO2 [1-(1,3-benzodioxol-5-ylmethyl)-3-thiophen-2-ylsulfonyl-2-pyrrolo[3,2-b]quinoxalinamine]
  IC50: 31.9 µM

## CCOC(=O)c1sc(Nc2nc3c(OC)cccc3s2)nc1C [SMR000027213]
  IC50: 2.35 µM

## Oc1nc(-c2ccncc2)nc2ccccc12 [MLS000056988]
  IC50: > 10000 µM

## O=c1c2ccccc2sn1-c1ccc(S(=O)(=O)N2CCCC2)cc1 [2-(4-pyrrolidin-1-ylsulfonylphenyl)-1,2-benzothiazol-3-one]
  IC50: 2.65 µM

## Cc1c(C(=O)NCc2ccc3c(c2)OCO3)sc2nc(-c3ccccc3)cn12 [3-methyl-6-phenyl-N-piperonyl-imidazo[2,1-b]thiazole-2-carboxamide]
  IC50: > 10000 µM

## CCOC(=O)Cc1csc(-n2sc3ccccc3c2=O)n1 [MLS000082162]
  IC50: 7.58 µM

## COc1ccc2nc3oc(C(=O)NCc4cccs4)cc3cc2c1 [6-methoxy-N-(2-thenyl)furo[2,3-b]quinoline-2-carboxamide]
  IC50: 13.9 µM

## Cc1nc2nc(C)c(CCC(=O)N3CCOCC3)c(C)n2n1 [1-(4-morpholinyl)-3-(2,5,7-trimethyl-[1,2,4]triazolo[1,5-a]pyrimidin-6-yl)-1-propanone]
  IC50: > 10000 µM

## Cc1c(NC(=O)CN2c3cccc4cccc(c34)S2(=O)=O)c(=O)n(-c2ccccc2)n1C [MLS000050268]
  IC50: 34.2 µM

## CN(c1nc2ccccc2n2c(-c3ccco3)nnc12)S(=O)(=O)c1ccccc1 [MLS000083900]
  IC50: 35.8 µM

## Cc1cccn2c(=O)c3cc(C#N)/c(=N\C(=O)c4ccc5c(c4)OCO5)n(CC(C)C)c3nc12 [MLS000082296]
  IC50: 118 µM
